# In patent publication US6977262B2, “Dihydropyrazolopyridine compounds and pharmaceutical use thereof” (Mitsubishi Pharma Corporation, priority 2001, dated 2005):
row,SMILES,melting point
1,"CN1CC=C(C2=C(C#N)C(c3cccc4nonc34)c3c[nH]nc3N2)CC1 (centres unmarked) [Example 1014, 4-(2,1,3-Benzoxadiazol-4-yl)-5-cyano-4,7-dihydro-6-(1-methyl-1,2,3,6-tetrahydropyridin-4-yl)-2H-pyrazolo[3,4-b]pyridine]",218 °C
2,"CN(CCC1=C(C#N)C(c2cccc3nonc23)c2c[nH]nc2N1)C(=O)OC(C)(C)C (centres unmarked) [Example 1015, 4-(2,1,3-Benzoxadiazol-4-yl)-6-(2-(N-t-butoxycarbonyl-N-methylamino)ethyl)-5-cyano-4,7-dihydro-2H-pyrazolo[3,4-b]-pyridine]",240 °C
3,"CNCCC1=C(C#N)C(c2cccc3nonc23)c2c[nH]nc2N1 (centres unmarked) [Example 1016, 4-(2,1,3-Benzoxadiazol-4-yl)-5-cyano-4,7-dihydro-6-(2-(N-methylamino)ethyl)-2H-pyrazolo[3,4-b]pyridine]",174 °C
4,"CC(C)(C)OC(=O)NCCC1=C(C#N)C(c2cccc3nonc23)c2c[nH]nc2N1 (centres unmarked) [Example 1017, 4-(2,1,3-Benzoxadiazol-4-yl)-6-(2-(N-t-butoxycarbonyl-amino)ethyl)-5-cyano-4,7-dihydro-2H-pyrazolo[3,4-b]pyridine]",231 °C
5,"CN(C)CCC1=C(C#N)C(c2cccc3nonc23)c2c[nH]nc2N1 (centres unmarked) [Example 1019, 4-(2,1,3-Benzoxadiazol-4-yl)-5-cyano-4,7-dihydro-6-(2-(N,N-dimethylamino)ethyl)-2H-pyrazolo[3,4-b]pyridine]",215 °C
6,"CN(CC1=C(C#N)C(c2cccc3nonc23)c2c[nH]nc2N1)C(=O)OC(C)(C)C (centres unmarked) [Example 1020, 4-(2,1,3-Benzoxadiazol-4-yl)-6-((N-t-butoxycarbonyl-N-methylamino)methyl)-5-cyano-4,7-dihydro-2H-pyrazolo[3,4-b]-pyridine]",207 °C
7,"N#CC1=C(C2CCN(C(=O)c3ccccc3)CC2)Nc2n[nH]cc2C1c1cccc2nonc12 (centres unmarked) [Example 1026, 4-(2,1,3-Benzoxadiazol-4-yl)-6-(1-benzoylpiperidin-4-yl)-5-cyano-4,7-dihydro-2H-pyrazolo[3,4-b]pyridine]",228 °C
8,"CC(=O)N1CC=C(C2=C(C#N)C(c3cccc4nonc34)c3c[nH]nc3N2)CC1 (centres unmarked) [Example 1027, 6-(1-Acetyl-1,2,3,6-tetrahydropyridin-4-yl)-4-(2,1,3-benzoxadiazol-4-yl)-5-cyano-4,7-dihydro-2H-pyrazolo[3,4-b]-pyridine]",237 °C
9,"CS(=O)(=O)N1CCC(C2=C(C#N)C(c3cccc4nonc34)c3c[nH]nc3N2)CC1 (centres unmarked) [Example 1029, 4-(2,1,3-Benzoxadiazol-4-yl)-5-cyano-4,7-dihydro-6-(1-methanesulfonylpiperidin-4-yl)-2H-pyrazolo[3,4-b]pyridine]",243 °C
10,"N#CC1=C(C2CCN(C(=N)N)CC2)Nc2n[nH]cc2C1c1cccc2nonc12 (centres unmarked) [Example 1031, 4-(2,1,3-Benzoxadiazol-4-yl)-5-cyano-4,7-dihydro-6-(1-guanylpiperidin-4-yl)-2H-pyrazolo[3,4-b]pyridine]",> 270 °C
11,"CC(=O)N1CCCC(C2=C(C#N)C(c3cccc4nonc34)c3c[nH]nc3N2)C1 (centres unmarked) [Example 1032, 6-(1-Acetylpiperidin-3-yl)-4-(2,1,3-benzoxadiazol-4-yl)-5-cyano-4,7-dihydro-2H-pyrazolo[3,4-b]pyridine]",219 °C
12,"CCN1CCC(C2=C(C#N)C(c3cccc4nonc34)c3c[nH]nc3N2)CC1 (centres unmarked) [Example 1033, 4-(2,1,3-Benzoxadiazol-4-yl)-5-cyano-4,7-dihydro-6-(1-ethylpiperidin-4-yl)-2H-pyrazolo[3,4-b]pyridine]",231 °C
13,"CCCN1CCC(C2=C(C#N)C(c3cccc4nonc34)c3c[nH]nc3N2)CC1 (centres unmarked) [Example 1034, 4-(2,1,3-Benzoxadiazol-4-yl)-5-cyano-4,7-dihydro-6-(1-propylpiperidin-4-yl)-2H-pyrazolo[3,4-b]pyridine]",246 °C
14,"CC(C)N1CCC(C2=C(C#N)C(c3cccc4nonc34)c3c[nH]nc3N2)CC1 (centres unmarked) [Example 1035, 4-(2,1,3-Benzoxadiazol-4-yl)-5-cyano-4,7-dihydro-6-(1-iso-propylpiperidin-4-yl)-2H-pyrazolo[3,4-b]pyridine]",260 °C
15,"CC(C)(C)OC(=O)N1CCC(C2=C(C#N)C(c3cccc(C#N)c3Br)c3c[nH]nc3N2)CC1 (centres unmarked) [Example 1036, 4-(2-Bromo-3-cyanophenyl)-6-(1-t-butoxycarbonylpiperidin-4-yl)-5-cyano-4,7-dihydro-2H-pyrazolo[3,4-b]pyridine]",> 270 °C
16,"N#CC1=C(C2CCNCC2)Nc2n[nH]cc2C1c1cccc(C#N)c1Br (centres unmarked) [Example 1037, 4-(2-Bromo-3-cyanophenyl)-5-cyano-4,7-dihydro-6-(piperidin-4-yl)-2H-pyrazolo[3,4-b]pyridine]",> 270 °C
17,"CN1CCC(C2=C(C#N)C(c3cccc(C#N)c3Br)c3c[nH]nc3N2)CC1 (centres unmarked) [Example 1038, 4-(2-Bromo-3-cyanophenyl)-5-cyano-4,7-dihydro-6-(1-methylpiperidin-4-yl)-2H-pyrazolo[3,4-b]pyridine]",> 270 °C
18,"CC(C)(C)OC(=O)N1CCCC(C2=C(C#N)C(c3cccc(C#N)c3Br)c3c[nH]nc3N2)C1 (centres unmarked) [Example 1039, 4-(2-Bromo-3-cyanophenyl)-6-(1-t-butoxycarbonylpiperidin-3-yl)-5-cyano-4,7-dihydro-2H-pyrazolo[3,4-b]pyridine]",238 °C
19,"CC(C)(C)OC(=O)N1CCOC(C2=C(C#N)C(c3cccc(C#N)c3Br)c3c[nH]nc3N2)C1 (centres unmarked) [Example 1044, 4-(2-Bromo-3-cyanophenyl)-6-(4-t-butoxycarbonylmorpholin-2-yl)-5-cyano-4,7-dihydro-2H-pyrazolo[3,4-b]pyridine]",219 °C
20,"N#CC1=C(C2=CCNCC2)Nc2n[nH]cc2C1c1cccc(C#N)c1Br (centres unmarked) [Example 1047, 4-(2-Bromo-3-cyanophenyl)-5-cyano-4,7-dihydro-6-(1,2,3,6-tetrahydropyridin-4-yl)-2H-pyrazolo[3,4-b]pyridine]",226 °C
21,"CN1CC=C(C2=C(C#N)C(c3cccc(C#N)c3Br)c3c[nH]nc3N2)CC1 (centres unmarked) [Example 1048, 4-(2-Bromo-3-cyanophenyl)-5-cyano-4,7-dihydro-6-(1-methyl-1,2,3,6-tetrahydropyridin-4-yl)-2H-pyrazolo[3,4-b]pyridine]",233 °C
22,"CC(=O)N1CCC(C2=C(C#N)C(c3cccc(C#N)c3Br)c3c[nH]nc3N2)CC1 (centres unmarked) [Example 1051, 6-(1-Acetylpiperidin-4-yl)-4-(2-bromo-3-cyanophenyl)-5-cyano-4,7-dihydro-2H-pyrazolo[3,4-b]pyridine]",> 280 °C
23,"CC(C)(C)OC(=O)N1CCC(C2=C(C#N)C(c3ccccc3Cl)c3c[nH]nc3N2)CC1 (centres unmarked) [Example 1054, 6-(1-t-Butoxycarbonylpiperidin-4-yl)-4-(2-chlorophenyl)-5-cyano-4,7-dihydro-2H-pyrazolo[3,4-b]pyridine]",> 280 °C

# The remaining lines, values ahead:
row,melting point,SMILES
1,> 280 °C,"N#CC1=C(C2CCN(C(=O)c3ccccc3)CC2)Nc2n[nH]cc2C1c1cccc(C#N)c1Br (centres unmarked) [Example 1052, 6-(1-Benzoylpiperidin-4-yl)-4-(2-bromo-3-cyanophenyl)-5-cyano-4,7-dihydro-2H-pyrazolo[3,4-b]pyridine]"
2,> 280 °C,"CS(=O)(=O)N1CCC(C2=C(C#N)C(c3cccc(C#N)c3Br)c3c[nH]nc3N2)CC1 (centres unmarked) [Example 1053, 4-(2-Bromo-3-cyanophenyl)-5-cyano-4,7-dihydro-6-(1-methanesulfonylpiperidin-4-yl)-2H-pyrazolo[3,4-b]pyridine]"
3,221 °C,"N#CC1=C(C2CCNCC2)Nc2n[nH]cc2C1c1ccccc1Cl (centres unmarked) [Example 1055, 4-(2-Chlorophenyl)-5-cyano-4,7-dihydro-6-(piperidin-4-yl)-2H-pyrazolo[3,4-b]pyridine]"
4,200 °C,"CC(=O)CC1=C(C#N)C(c2cccc3nonc23)c2c[nH]nc2N1 (centres unmarked) [Example 1061, 6-Acetylmethyl-4-(2,1,3-benzoxadiazol-4-yl)-5-cyano-4,7-dihydro-2H-pyrazolo[3,4-b]pyridine]"
5,273 °C,"N#CC1=C(C2CCCCC2=O)Nc2n[nH]cc2C1c1cccc(C#N)c1Br (centres unmarked) [Example 1062, 4-(2-Bromo-3-cyanophenyl)-5-cyano-4,7-dihydro-6-(2-oxocyclohexan-1-yl)-2H-pyrazolo[3,4-b]pyridine]"
6,> 240 °C,"N#CC1=C(C2CCCN2)Nc2n[nH]cc2C1c1cccc(C#N)c1Br (centres unmarked) [Example 1068, 4-(2-Bromo-3-cyanophenyl)-5-cyano-6-(pyrrolidin-2-yl)-4,7-dihydro-2H-pyrazolo[3,4-b]pyridine]"
7,> 240 °C,"N#CC1=C(C2CCCN2)Nc2n[nH]cc2C1c1cccc2nonc12 (centres unmarked) [Example 1070, 4-(2,1,3-Benzoxadiazol-4-yl)-5-cyano-4,7-dihydro-6-(pyrrolidin-2-yl)-2H-pyrazolo[3,4-b]pyridine]"
8,> 250 °C,"N#CC1=C(CN2C(=O)c3ccccc3C2=O)Nc2n[nH]cc2C1c1ccccc1Cl (centres unmarked) [Example 1079, 4-(2-Chlorophenyl)-5-cyano-4,7-dihydro-6-phthalimidomethyl-2H-pyrazolo[3,4-b]pyridine]"
9,225 to 228 °C (dec.),"CC(=O)C1=C(C#N)C(c2ccccc2Cl)c2c[nH]nc2N1 (centres unmarked) [Example 1080, 6-Acetyl-4-(2-chlorophenyl)-5-cyano-4,7-dihydro-2H-pyrazolo[3,4-b]pyridine]"
10,> 230 °C,"CC(=O)C1=C(C#N)C(c2cccc(C#N)c2Br)c2c[nH]nc2N1 (centres unmarked) [Example 1081, 6-Acetyl-4-(2-bromo-3-cyanophenyl)-5-cyano-4,7-dihydro-2H-pyrazolo[3,4-b]pyridine]"
11,230 °C (dec.),"CC(=O)C1=C(C#N)C(c2cccc3nonc23)c2c[nH]nc2N1 (centres unmarked) [Example 1082, 6-Acetyl-4-(2,1,3-benzoxadiazol-4-yl)-5-cyano-4,7-dihydro-2H-pyrazolo[3,4-b]pyridine]"
12,> 230 °C,"N#CC1=C(C2CC(=O)N(Cc3ccccc3)C2)Nc2n[nH]cc2C1c1ccccc1Cl (centres unmarked) [Example 1083, 6-(1-Benzyl-2-oxopyrrolidin-4-yl)-4-(2-chlorophenyl)-5-cyano-4,7-dihydro-2H-pyrazolo[3,4-b]pyridine]"
